Where only a bound is given, the exact number is not on record here.

As a reminder, the IC50 is the concentration that gives 50% inhibition. The Ki is the equilibrium dissociation constant of an inhibitor or competing ligand from its target.

The test system of one data set is thymidilate synthase. The following applies: read-out: IC50 for the enzyme (thymidilate synthase); cited from earlier work.
For data set [1], the target named is T1, polyglutamoylation synthase enzyme (Homo sapiens, UniProt Q05932).
T1 sequence (Q05932 43-587): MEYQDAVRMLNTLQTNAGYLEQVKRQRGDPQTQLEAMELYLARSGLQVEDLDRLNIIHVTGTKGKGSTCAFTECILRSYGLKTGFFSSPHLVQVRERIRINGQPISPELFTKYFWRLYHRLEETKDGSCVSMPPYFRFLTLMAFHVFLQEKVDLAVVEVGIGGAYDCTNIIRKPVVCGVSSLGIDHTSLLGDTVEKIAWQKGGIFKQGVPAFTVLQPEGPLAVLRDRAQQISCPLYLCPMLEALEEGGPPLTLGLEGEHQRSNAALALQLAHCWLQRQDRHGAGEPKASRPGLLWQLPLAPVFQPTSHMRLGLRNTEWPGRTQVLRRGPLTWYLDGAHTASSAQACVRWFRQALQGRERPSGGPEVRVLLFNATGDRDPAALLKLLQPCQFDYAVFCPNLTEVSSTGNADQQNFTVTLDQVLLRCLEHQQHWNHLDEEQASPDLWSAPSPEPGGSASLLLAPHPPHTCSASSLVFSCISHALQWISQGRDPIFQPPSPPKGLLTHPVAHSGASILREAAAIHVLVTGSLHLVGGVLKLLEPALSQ
The following applies: cited from earlier work.

A further data set concerns the target folate receptor α (FRα) (Homo sapiens, UniProt P15328). The following applies: read-out: Ki (affinity) for folate receptor α (FRα); cited from earlier work.
Data set [2] addresses T2, reduced folate carrier protein (RFCP) (Homo sapiens, UniProt P41440).
T2 sequence (P41440 1-591): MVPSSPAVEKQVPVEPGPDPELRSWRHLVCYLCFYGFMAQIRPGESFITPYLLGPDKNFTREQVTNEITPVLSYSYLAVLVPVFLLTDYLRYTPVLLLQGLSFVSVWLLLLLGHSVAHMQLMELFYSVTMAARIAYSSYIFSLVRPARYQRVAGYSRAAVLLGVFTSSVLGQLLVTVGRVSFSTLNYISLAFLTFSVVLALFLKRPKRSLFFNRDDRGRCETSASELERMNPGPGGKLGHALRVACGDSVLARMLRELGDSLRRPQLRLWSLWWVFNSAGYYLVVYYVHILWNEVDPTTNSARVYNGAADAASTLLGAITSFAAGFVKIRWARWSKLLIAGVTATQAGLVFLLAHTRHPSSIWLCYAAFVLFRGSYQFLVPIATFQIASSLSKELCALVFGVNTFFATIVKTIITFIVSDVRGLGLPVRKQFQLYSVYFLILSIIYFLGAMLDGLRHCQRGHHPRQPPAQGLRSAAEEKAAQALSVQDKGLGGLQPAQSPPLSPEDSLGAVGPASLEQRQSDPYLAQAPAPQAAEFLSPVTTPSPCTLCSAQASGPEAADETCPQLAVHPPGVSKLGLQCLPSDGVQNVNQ
Conditions: not a substrate for RFCP; cited from earlier work.

Data set [3] can be described thus: Chemical stability under acidic conditions. The class given is physicochemical. The following applies: pH 5. The method, then: The reported chemistry was carried out on a very small scale, with no detailed analysis of the purity profile of the product 1.

folate receptor α (FRα), sequence (P15328 25-234, species assumed): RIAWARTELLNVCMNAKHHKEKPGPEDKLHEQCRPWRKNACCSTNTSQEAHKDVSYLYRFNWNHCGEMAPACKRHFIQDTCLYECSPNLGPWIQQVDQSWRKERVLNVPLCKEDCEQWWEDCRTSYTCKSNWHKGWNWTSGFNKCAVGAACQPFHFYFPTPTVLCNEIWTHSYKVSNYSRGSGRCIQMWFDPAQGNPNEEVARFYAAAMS

As to `C#CCN(c1ccc(C(=O)N[C@@H](CCC(=O)N[C@H](CCC(=O)[O-])C(=O)[O-])C(=O)[O-])cc1)[C@H]1CCc2cc3nc(CO)[nH]c(=O)c3cc21.[Na+].[Na+].[Na+]` [Compound 2, (2,R)-((4,S)-carboxy-4-(4,N-(((6S)-2-(hydroxymethyl)-4-oxo-3,4,7,8-tetrahydro-3H-cyclopenta[g]quinazolin-6-yl)-N-(prop-2-ynyl)amino)benzamido)butanamido)pentanedioic acid trisodium salt], in the data set on thymidilate synthase, the IC50 is 3 nM. Besides, in data set [1], the “Substrate for the polyglutamoylation synthase enzyme” value was “not a substrate”. The Ki at folate receptor α (FRα) is 0.5 nM; in data set [2], above 250000 nM.

Consider `C#CCN(c1ccc(C(=O)N[C@@H](CCC(=O)N[C@H](CCC(=O)O)C(=O)O)C(=O)O)cc1)[C@H]1CCc2cc3nc(CO)[nH]c(=O)c3cc21` [Compound 1, (2,R)-((4,S)-carboxy-4-(4,N-(((6S)-2-(hydroxymethyl)-4-oxo-3,4,7,8-tetrahydro-3H-cyclopenta[g]quinazolin-6-yl)-N-(prop-2-ynyl)amino)benzamido)butanamido)pentanedioic acid], for which the “Stability in aqueous solution” value in data set [3] is listed as “limited stability”.
